Reference: patent US20110091570A1, “Compositions and Devices for Antisepsis and Anticoagulation” (priority 2008, published 2011)
Where “and” joins values, the source holds several entries; their conditions need not be identical. Equal values may be shown once.

Columns and labels:
[1] = tested on: Staphylococcus aureus (ATCC 25923); assay: Bactericidal activity of NCT without and with heparin (CFU counts); type: cell-based
Description: FIG. 1 presents a plot of bactericidal activity of 1% NCT without and with 125 IE/mL heparin against Staphylococcus aureus ATCC 25923 at pH 7.1 and 37° C. Mean values standard error of the mean of three independent experiments. P>0.05 between NCT without and NCT with heparin.
(§1) NCT was dissolved in 0.1 M phosphate buffer containing either 125 IE/mL heparin or no heparin. The final NCT concentration was 1%. Various bacterial species were grown in tryptic soy broth overnight, were washed twice in saline and then suspended in the NCT and NCT/heparin solutions. The species were Staphylococcus aureus (ATCC 25923), Escherichia coli (ATCC 11229), Streptococcus pyogenes, Staphylococcus epidermidis, Pseudomonas aeruginosa, Proteus mirabilis, and methicillin-resistant Staphylococcus aureus. Controls were performed with the foregoing bacterial species suspended in 0.1 M phosphate buffer without additives and in 0.1 M phosphate buffer containing 125 IE/mL heparin. All of the solutions were incubated at 37° C. and pH 7.1. After 1, 3, 5, 8, and 10 minutes, aliquots of 100 μL were removed and diluted 10-fold or 100-fold in 0.6% sodium thiosulfate solution to inactivate the NCT. Aliquots (50 μL) of these dilutions were spread on tryptic soy agar plates. The plates were incubated at 37° C. and colony forming units of bacteria were counted after 24 and 48 hours. […]

[2] = tested on: Escherichia coli (ATCC 11229); assay: as above; type: cell-based
Description: FIG. 2 presents a plot of bactericidal activity of 1% NCT without and with 125 IE/mL heparin against Escherichia coli ATCC 11229 at pH 7.1 and 37° C. Mean values±standard error of the mean of three independent experiments. P>0.05 between NCT without and NCT with heparin.
as §1

[3] = tested on: Balb/c mice; assay: Injection of 1% NCT solution into the tail vein of mice (tolerability); type: in vivo, mouse
Description: In this model, injection of 1% aqueous NCT solution was tolerated at a volume that equals approximately 10% of the total blood volume of a mouse. A 1% solution contains 55 mmol/L NCT, which is more than 1000 times greater than any physiologic concentration produced by human leukocytes.
Balb/c mice were injected into the tail vein with a sterile aqueous solution of 1% NCT. Four mice were injected with 0.05 ml, four mice with 0.1 ml, one mouse with 0.2 ml, and one mouse with 0.3 ml, respectively, of the NCT solution.
In this Example, injection of 1% aqueous NCT solution was tolerated in the mouse model at a volume that equals approximately 10% of the total blood volume of a mouse.

[4] = tested on: citrate blood; assay: Prothrombin time (PT), Thromborel S test; type: biochemical, human; settings: for PT (%): Example 6, single volunteer; for Prothrombin time (PT) / Prothrombin time (PT), mean value: Example 7; for Prothrombin time (PT): individual subjects 1-11; for Prothrombin time (PT), mean value: mean of 11 subjects
Description: (§2) Whole blood was taken from volunteers and enriched with trisodium citrate (0.3 mL of a 0.106 molar solution per 3 mL whole blood) (S-Monovette®, Sarstedt, Nümbrecht, Germany). Routine coagulation tests were performed on the following samples:
(§3) The following commercial coagulation tests were performed according to the prescription of the manufacturer: prothrombin time (PT) was determined using Thromborel® S test (Dade Behring GmbH, Marburg, Germany); activated partial thromboplastin time (aPTT) was determined using Pathromtin* SL test (Dade Behring GmbH, Marburg, Germany); and thrombin time (TT) was determined using BC Thrombin Reagent test (Dade Behring GmbH, Marburg, Germany).
(§4) Whole blood was taken from a single volunteer and enriched with trisodium citrate (0.3 mL of a 0.106 molar solution per 3 mL whole blood) (S-Monovette®, Sarstedt, Nümbrecht, Germany). Portions of 1.8 mL citrate blood were mixed with 0.2 mL NCT in 0.9% saline. The following final (after dilution in blood) NCT concentrations were tested separately: 1% (55 mM); 0.5% (27.5 mM); 0.25% (13.75 mM); 0.1% (5.5 mM); 0.05% (2.75 mM); 0.025% (1.375 mM); and 0.01% (0.55 mM). A control without NCT was performed in parallel. The following commercial coagulation tests were performed according to the prescription of the manufacturer: prothrombin time (PT) was determined using Thromborel® S test (Dade Behring GmbH, Marburg, Germany), activated partial thromboplastin time (aPTT) was determined using Pathromtin* SL test (Dade Behring GmbH, Marburg, Germany); thrombin time (TT) was determined using BC Thrombin Reagent test (Dade Behring GmbH, Marburg, Germany); and fibrinogen was determined using Multifibren* U test (Dade Behring GmbH, Marburg, Germany).
(§5) Whole blood was taken from 11 volunteers and enriched with trisodium citrate (0.3 mL of a 0.106 molar solution per 3 mL whole blood) (S-Monovette®, Sarstedt, Nümbrecht, Germany). Commercial coagulation tests (as described in Example 6) were performed with the following samples: […]

[5] = tested on: external otitis; settings: human external otitis [Ref 15]; cited from earlier work
[6] = tested on: citrate blood; assay: Routine coagulation tests, overall anticoagulant effect; type: biochemical, human
Description: as §2, §3, §4, §5

[7] = tested on: Antithrombin III; assay: Antithrombin III in citrate blood; type: biochemical, human; settings: Example 7; for Antithrombin III: individual subjects 1-11; for Antithrombin III, mean value: mean of 11 subjects
Description: as §5

[8] = tested on: Proteus mirabilis; assay: Bactericidal activity of NCT without and with heparin (CFU counts); type: cell-based
[9] = tested on: mice; settings: transtympanal injection of 0.1%, 1%, and 10% NCT, mice [Ref. 19]; cited from earlier work
[10] = tested on: Human Blood; settings: Stief et al. [Ref 27]; cited from earlier work
[11] = 0.1% NCT, virtually identical experiments
[12] = 1% NCT, 125 IE/mL heparin, pH 7.1, 37° C., 1-10 min
[13] = Balb/c mice, sterile aqueous 1% NCT, 0.05-0.3 ml i.v.

O=S(=O)(O)CCNCl [NCT, N-chlorotaurine]
influence of heparin on the killing of bacteria [1, 11]: no statistically significant influence of heparin on the killing of bacteria | killing activity of NCT with vs without heparin [1, 12]: no difference in the killing activity | influence of heparin on the killing of bacteria [2, 11]: no statistically significant influence of heparin on the killing of bacteria | killing activity of NCT with vs without heparin [2, 12]: no difference in the killing activity | tolerated injection volume ([3]; 1% aqueous NCT solution i.v.): approximately 10 % of the total blood volume of a mouse | changes of behaviour after tail vein injection [3, 13]: no changes of behaviour | survival after tail vein injection [3, 13]: all mice survived | prothrombin time ([4]; Example 5, 1% NCT final concentration in citrate blood): above the test limits | PT (%) ([4]; 0.01% (0.55 mM) NCT final): 91.4% | PT (%) ([4]; 0.025% (1.375 mM) NCT final): 70.6% | PT (%) ([4]; 0.05% (2.75 mM) NCT final): 33.4% | PT (%) ([4]; 0.1% (5.5 mM) NCT final): <limit | PT (%) ([4]; 0.25% (13.75 mM) NCT final): <limit | PT (%) ([4]; 0.5% (27.5 mM) NCT final): <limit | PT (%) ([4]; 1% (55 mM) NCT final): <limit | Prothrombin time (PT) ([4]; 0.01% NCT): 70% and 59% and 95% and 62% and 88% and 61% and 86% and 72% and 77% and 74% and 79% | Prothrombin time (PT), mean value ([4]; 0.01% NCT): 74.8% | Prothrombin time (PT) ([4]; 0.025% NCT): 28% and 20% and 50% and 10% and 21% and 16% (2×) and 25% and 36% and 24% and 32% | Prothrombin time (PT), mean value ([4]; 0.025% NCT): 25.3% | efficacy versus standard medication [5]: more effective than a standard medication | effect on the anticoagulant activity of heparin ([6]; Example 5, 1% NCT final concentration): does not counteract the anticoagulant activity of heparin | anticoagulant activity of NCT alone ([6]; Example 5, 1% NCT without heparin): has anticoagulant activity | anticoagulant effect ([6]; NCT 0.55 mmol/L): significant anticoagulant effect | anticoagulant effect ([6]; NCT 1.375 mmol/L): strong effect | Antithrombin III ([7]; 0.01% NCT): 92% and 79% and 101% and 85% and 82% and 81% and 94% and 75% and 95% and 80% and 84% | Antithrombin III, mean value ([7]; 0.01% NCT): 86.2% | Antithrombin III ([7]; 0.025% NCT): 90% and 81% and 101% and 79% (3×) and 80% and 87% and 73% and 94% and 78% | Antithrombin III, mean value ([7]; 0.025% NCT): 83.7% | influence of heparin on the killing of bacteria [8, 11]: no statistically significant influence of heparin on the killing of bacteria | killing activity of NCT with vs without heparin [8, 12]: no difference in the killing activity | damage of the inner ear [9]: did not cause damage of the inner ear | concentration with anticoagulant effect (not below) [10]: 2 to 3 mmol/L
